Measurements reported in the NIST ThermoML archive (doi:10.1021/je060271a).
Values joined by “and” are separate entries in the source; they are usually repeats but may differ in a detail not shown here. Equal values may be shown once.

Conditions: Liquid, Vibrating tube method

CCCCCCC(=O)OCC(COC(=O)CCCCCC)(COC(=O)CCCCCC)COC(=O)CCCCCC [pentaerythritol tetraheptanoate]
Conditions | mass density
343.14 K, 22987 kPa | 957 kg/m3
343.14 K, 23023 kPa | 956.9 kg/m3
343.14 K, 23067 kPa | 956.9 kg/m3
343.14 K, 23104 kPa | 956.9 kg/m3
343.14 K, 23148 kPa | 957 kg/m3
343.14 K, 23186 kPa | 957 kg/m3
343.14 K, 23224 kPa | 956.9 kg/m3
343.14 K, 23269 kPa | 957.1 kg/m3
343.14 K, 23308 kPa | 957.1 kg/m3
343.14 K, 23346 kPa | 957.1 kg/m3
343.14 K, 23393 kPa | 957.2 kg/m3
343.14 K, 23433 kPa | 957.2 kg/m3
343.14 K, 23473 kPa | 957.2 kg/m3
343.14 K, 23512 kPa | 957.2 kg/m3
343.14 K, 23551 kPa | 957.3 kg/m3
343.14 K, 23582 kPa | 957.3 kg/m3
343.14 K, 23619 kPa | 957.3 kg/m3
343.14 K, 23650 kPa | 957.2 kg/m3
343.14 K, 23719 kPa | 957.3 kg/m3
343.14 K, 23782 kPa | 957.3 kg/m3
343.14 K, 23820 kPa | 957.3 kg/m3
343.14 K, 23852 kPa | 957.4 kg/m3
343.14 K, 23887 kPa | 957.4 kg/m3
343.14 K, 23919 kPa | 957.4 kg/m3
343.14 K, 23957 kPa | 957.4 kg/m3
343.14 K, 23990 kPa | 957.4 kg/m3
343.14 K, 24022 kPa | 957.6 kg/m3
343.14 K, 24061 kPa | 957.7 kg/m3
343.14 K, 24094 kPa | 957.5 kg/m3
343.14 K, 24160 kPa | 957.5 kg/m3
343.14 K, 24588 kPa | 957.9 kg/m3
343.14 K, 24654 kPa | 957.9 kg/m3
343.14 K, 24695 kPa | 958 kg/m3
343.14 K, 24730 kPa | 958.1 kg/m3
343.14 K, 24765 kPa | 958 kg/m3
343.14 K, 24806 kPa | 958 kg/m3
343.14 K, 24840 kPa | 958.1 kg/m3
343.14 K, 25030 kPa | 958.1 kg/m3
343.14 K, 25067 kPa | 958.2 kg/m3
343.14 K, 25103 kPa | 958.2 kg/m3
343.14 K, 25183 kPa | 958.1 kg/m3
343.14 K, 25215 kPa | 958.2 kg/m3
343.14 K, 25436 kPa | 958.5 kg/m3
343.14 K, 25465 kPa | 958.5 kg/m3
343.14 K, 25501 kPa | 958.5 kg/m3
343.14 K, 26973 kPa | 959.4 kg/m3
343.14 K, 27040 kPa | 959.4 kg/m3
343.14 K, 27491 kPa | 959.6 kg/m3
343.14 K, 27527 kPa | 959.7 kg/m3
343.14 K, 27558 kPa | 959.9 kg/m3
343.14 K, 27645 kPa | 960 kg/m3
343.14 K, 27672 kPa | 959.9 kg/m3
343.14 K, 27705 kPa | 959.9 kg/m3
343.14 K, 27733 kPa | 959.9 kg/m3
343.14 K, 27761 kPa | 959.9 kg/m3
343.14 K, 27793 kPa | 959.9 kg/m3
343.14 K, 27821 kPa | 959.9 kg/m3
343.14 K, 27849 kPa | 960 kg/m3
343.14 K, 27937 kPa | 960.1 kg/m3
343.14 K, 27971 kPa | 960.1 kg/m3
343.14 K, 27998 kPa | 960 kg/m3
343.14 K, 28026 kPa | 960 kg/m3
343.14 K, 28060 kPa | 960 kg/m3
343.14 K, 28670 kPa | 960.5 kg/m3
343.14 K, 28700 kPa | 960.4 kg/m3
343.14 K, 29403 kPa | 960.9 kg/m3
343.14 K, 33157 kPa | 963.2 kg/m3
343.14 K, 33197 kPa | 963.3 kg/m3
343.14 K, 33238 kPa | 963.2 kg/m3
343.14 K, 33290 kPa | 963.2 kg/m3
343.14 K, 33322 kPa | 963.3 kg/m3
343.14 K, 33371 kPa | 963.3 kg/m3
343.14 K, 33412 kPa | 963.3 kg/m3
343.14 K, 33461 kPa | 963.4 kg/m3
343.14 K, 33503 kPa | 963.4 kg/m3
343.14 K, 33545 kPa | 963.5 kg/m3
343.14 K, 33586 kPa | 963.4 kg/m3
343.14 K, 33637 kPa | 963.5 kg/m3
343.14 K, 33678 kPa | 963.7 kg/m3
343.14 K, 33906 kPa | 963.6 kg/m3
343.15 K, 100.4 kPa | 940.6 kg/m3
343.15 K, 100.5 kPa | 940.6 kg/m3
343.15 K, 100.7 kPa | 940.6 kg/m3
343.15 K, 100.9 kPa | 940.6 kg/m3
343.15 K, 102.6 kPa | 940.6 kg/m3
343.15 K, 106.3 kPa | 940.6 kg/m3
343.15 K, 108.5 kPa | 940.6 kg/m3
343.15 K, 111.8 kPa | 940.7 kg/m3
343.15 K, 116.3 kPa | 940.7 kg/m3
343.15 K, 119.8 kPa | 940.6 kg/m3
343.15 K, 124 kPa | 940.5 kg/m3
343.15 K, 126.8 kPa | 940.6 kg/m3
343.15 K, 129.2 kPa | 940.5 kg/m3
343.15 K, 131.6 kPa | 940.6 kg/m3
343.15 K, 133.4 kPa | 940.7 kg/m3
343.15 K, 134.8 kPa | 940.8 kg/m3
343.15 K, 135.3 kPa | 940.7 kg/m3
343.15 K, 136.2 kPa | 940.6 kg/m3
343.15 K, 136.7 kPa | 940.6 kg/m3
343.15 K, 137.7 kPa | 940.7 kg/m3
343.15 K, 138.6 kPa | 940.7 kg/m3
343.15 K, 139.6 kPa | 940.7 kg/m3
343.15 K, 140.5 kPa | 940.6 kg/m3
343.15 K, 140.7 kPa | 940.8 kg/m3 and 940.7 kg/m3
343.15 K, 140.8 kPa | 940.6 kg/m3
343.15 K, 141 kPa | 940.7 kg/m3
343.15 K, 141.2 kPa | 940.6 kg/m3
343.15 K, 141.5 kPa | 940.6 kg/m3
343.15 K, 141.9 kPa | 940.7 kg/m3
343.15 K, 142.4 kPa | 940.7 kg/m3
343.15 K, 142.9 kPa | 940.6 kg/m3
343.15 K, 143.1 kPa | 940.6 kg/m3 and 940.7 kg/m3
